The source of these data is ChEMBL document CHEMBL4130371, “Norepinephrine alkaloids as antiplasmodial agents: Synthesis of syncarpamide and insight into the structure-activity relationships of its analogues as antiplasmodial agents” (Eur J Med Chem, 2017).

For data set [1], the system named is Plasmodium falciparum. As to the kind of experiment: Antiplasmodial activity against chloroquine-sensitive Plasmodium falciparum 3D7 measured after 72 hrs by SYBR green 1 dye based fluorescence assay. The format is functional, organism-based. The settings on record: 3D7, 72 h.
Data set [2] has as its system Plasmodium falciparum. Briefly: Antiplasmodial activity against chloroquine-resistant Plasmodium falciparum K1 measured after 72 hrs by SYBR green 1 dye based fluorescence assay. The format is functional, organism-based. The settings on record: K1, 72 h.
A short description of data set [3]: Cytotoxicity against African green monkey Vero cells assessed as reduction in cell viability after 72 hrs by MTT assay. The format is cell-based. The following applies: chlorocebus sabaeus. (Tetrazolium dyes change colour on reduction, which living cells bring about.)
The nature of data set [4]: Selectivity index, ratio of CC50 for African green monkey Vero cells to IC50 for chloroquine-sensitive Plasmodium falciparum 3D7. The format is toxicity. The settings on record: read-out: Ratio CC50/IC50.

`CCCC(=O)O[C@H](CNC(=O)/C=C/c1ccccc1)c1ccc(OC)c(OC)c1`: the IC50 in the data set on Plasmodium falciparum [1] and with Plasmodium falciparum [2] was over 10 µM each time. In addition, the cytotoxic concentration (CC50) (commonly the concentration that lowers cell viability or growth by half) at 72 h in data set [3] was found to be 29.9 µM. In data set [4], the selectivity ratio is under 2.98.
On to `COc1ccc([C@@H](CNC(=O)/C=C/c2ccccc2)OC(=O)CCc2ccccc2)cc1OC`, for which the IC50 with Plasmodium falciparum [1] and with Plasmodium falciparum [2] was over 10 µM throughout. Moreover, in data set [3], the CC50 at 72 h was 36.9 µM. In data set [4], the selectivity ratio was under 3.69.
`CCCC(=O)NC[C@@H](OC(=O)/C=C/c1ccccc1)c1ccc(OC)c(OC)c1`: the IC50 in the data set on Plasmodium falciparum [1] and with Plasmodium falciparum [2] was over 10 µM throughout. Moreover, the CC50 at 72 h in data set [3] turned out to be 42.4 µM. Besides, the selectivity ratio in data set [4] was under 4.24.
`O=C(/C=C/c1ccccc1)OC[C@@H](OC(=O)/C=C/c1ccccc1)c1ccc2ccccc2c1`: the IC50 in the data set on Plasmodium falciparum [1] and with Plasmodium falciparum [2] was over 10 µM each time. Besides, the CC50 at 72 h in data set [3] was over 200 µM. Besides, the selectivity ratio in data set [4] is 20.
On to `O=C(/C=C/c1ccccc1)OC[C@H](OC(=O)/C=C/c1ccccc1)c1ccc2ccccc2c1`, for which the half-inhibitory concentration (IC50) – broadly, the midpoint of a concentration-inhibition curve – in the data set with Plasmodium falciparum [1] was over 10 µM; in the data set on Plasmodium falciparum [2] it was 2.15 µM. In addition, in data set [3], the CC50 at 72 h amounted to 181 µM. Besides, the selectivity ratio in data set [4] was under 18.1.
In the case of `COc1ccc([C@@H](CNC(=O)CCc2ccccc2)OC(=O)/C=C/c2ccccc2)cc1OC`, the IC50 with Plasmodium falciparum [1] and with Plasmodium falciparum [2] was over 10 µM throughout. Also, the CC50 at 72 h in data set [3] turned out to be 44.3 µM. For the same compound, the selectivity ratio in data set [4] is under 4.43.
Regarding `COc1ccc([C@H](O)CNC(=O)/C=C/c2ccccc2)cc1`, the figures for the IC50 with Plasmodium falciparum [1] and with Plasmodium falciparum [2] were 6.82 µM and 7.26 µM, respectively.
For `COc1ccc([C@@H](O)CNC(=O)/C=C/c2ccccc2)cc1` [AEGELINE], the IC50 with Plasmodium falciparum [1] and in the data set with Plasmodium falciparum [2] was over 10 µM in each case.
For `COc1cc([C@@H]2c3cc4c(cc3[C@H](O)[C@H]3COC(=O)[C@H]23)OCO4)cc(OC)c1OC` [PODOFILOX], in data set [3], the CC50 at 72 h is 5.74 µM.
